Test results published in patent US12264156B2, “Compounds and pharmaceutical compositions thereof for the treatment of diseases” (GALAPAGOS NV, priority 2018, dated 2025).

Legend:
mouse CIA model = assay: Collagen induced arthritis (CIA) model; type: in vivo; parameters: key: per paw 0 = none to 4 = maximal; sum of 4 paws, max 16
Experimental: Completed Freund's adjuvant (CFA) and incomplete Freund's adjuvant (IFA) were purchased from Difco. Bovine collagen type II (CII), lipopolysaccharide (LPS), and Enbrel® (etanercept) were obtained from Chondrex (L'Isle d'Abeau, France); Sigma (P4252, L'Isle d'Abeau, France), Whyet (25 mg injectable syringe, France), respectively. All other reagents used were of reagent grade and all solvents were of analytical grade.
DBA1/J mice (male, 7-8 weeks old) were obtained from Charles River Laboratories (Écully, France). Mice were kept on a 12 h light/dark cycle. Temperature was maintained at 22° C., and food and water were provided ad libitum.
One day before the experiment, CII solution (2 mg/mL) was prepared with 0.05 M acetic acid and stored at 4° C. Just before the immunization, equal volumes of adjuvant […] and CII were mixed by a homogenizer in a pre-cooled glass bottle in an ice water bath. Extra adjuvant and prolonged homogenization may be required if an emulsion is not formed. 0.2 mL of the emulsion was injected intradermally at the base of the tail of each mouse on day 1, a second booster intradermal injection (CII solution at 2 mg/mL in […]) was performed on […]. This immunization method was modified from published methods (Jou et al. 2005; Sims et al. 2004).
The therapeutic effects of the compounds were tested in the mouse CIA model. Mice were randomly divided into equal groups and each group contained 10 mice. All mice were immunized on day 1 and boosted on day 21. The negative control group was treated with vehicle (MC 0.5%) and the positive control group with Enbrel® (10 mg/kg, 3× week., sc). A compound of interest was typically tested at 3 doses per os (p.o.). At day 32, randomization between groups was performed with respect with clinical score and animals were therapeutically treated regarding their group until day 47. Body weight and clinical score, were recorded at least twice a week.
Arthritis is scored according to the method of Khachigian 2006, Lin et al 2007 and Nishida et al. 2004 (Khachigian 2006; Lin et al. 2007; Nishida et al. 2004). The swelling of each of the four paws is ranked with the arthritic score as follows: 0-no symptoms; 1-mild, but definite redness and swelling of one type of joint such as the ankle or wrist, or apparent redness and swelling limited to individual digits, regardless of the number of affected digits; 2-moderate redness and swelling of two or more types of joints; 3-severe redness and swelling of the entire paw including digits; 4-maximally inflamed limb with involvement of multiple joints (maximum cumulative clinical arthritis score 16 per animal) (Nishida et al. 2004).

[1] = test system: lung fibrosis induced by radiation; assay: Radiation induced fibrosis mouse model; type: in vivo; conditions: 60 mg/kg p.o. b.i.d.
From the text: Pneumonitis and lung fibrosis are the major radiation-induced complications following thoracic radiotherapy, which is one of the major treatment of lung and breast cancers, lymphomas and hematopoietic transplant conditioning. The objective of this model was to evaluate the effect of a compound of the invention in lung fibrosis induced by radiation in mice (Favaudon et al. 2014), in particular on lung functionality (Flexivent) and fibrosis marker (Collagen I).
7 weeks old (18-22 gr) female C57BL/6J mice from Charles River (Écully, France), batch number S1672) were maintained on 12 h light/dark cycle at 22° C. with ad libitum access to tap water and food. […]
Body weight was recorded once a week, and on D23, lung function measurement under anesthesia was realized by Flexivent (Devos et al. 2017) for all groups (6 successful measurement per group) before sacrifice.
Lungs were collected and fixed in 4% formaldehyde for 24 h before embedding in paraffin. […] The anti-collagen I antibody was detected and amplified by ImmPress kit (Vector Laboratories, 3, Accent Park, Bakewell Road, Orton Southgate, Peterborough, PE2 6XS, United Kingdom, Cat #MP-7401). The immunostained sections were then scanned (Nanozoomer, Hamamatsu) before quantification by image analysis (CaloPix software, TRIBVN Healthcare). Data were expressed as percentage collagen I area per area of lung tissue. […]

Structure (SMILES): COc1cc(-c2cnc3cc(OCCN4CCOCC4)ccn23)cc2c1C(=O)N(CC(F)(F)F)CC2 [Cpd 88, 8-methoxy-6-[7-(2-morpholinoethoxy)imidazo [1,2-a]pyridin-3-yl]-2-(2,2,2-trifluoroethyl)-3,4-dihydroisoquinolin-1-one]
- CIA clinical score (mouse CIA model; 10 mg/kg b.i.d. p.o., day 32): 2.7
- CIA clinical score (mouse CIA model; 10 mg/kg b.i.d. p.o., day 33): 3.1
- CIA clinical score (mouse CIA model; 10 mg/kg b.i.d. p.o., day 35): 3.6
- CIA clinical score (mouse CIA model; 10 mg/kg b.i.d. p.o., day 36): 4.1
- CIA clinical score (mouse CIA model; 10 mg/kg b.i.d. p.o., day 39): 4.4
- CIA clinical score (mouse CIA model; 10 mg/kg b.i.d. p.o., day 40): 4.8
- CIA clinical score (mouse CIA model; 10 mg/kg b.i.d. p.o., day 41): 4.5
- CIA clinical score (mouse CIA model; 10 mg/kg b.i.d. p.o., day 42): 4.9
- CIA clinical score (mouse CIA model; 10 mg/kg b.i.d. p.o., day 43): 5.1
- CIA clinical score (mouse CIA model; 10 mg/kg b.i.d. p.o., day 46): 8.0
- CIA clinical score (mouse CIA model; 10 mg/kg b.i.d. p.o., day 47): 7.9
- CIA clinical score (mouse CIA model; 30 mg/kg b.i.d. p.o., day 32): 2.7
- CIA clinical score (mouse CIA model; 30 mg/kg b.i.d. p.o., day 33): 2.7
- CIA clinical score (mouse CIA model; 30 mg/kg b.i.d. p.o., day 35): 3.4
- CIA clinical score (mouse CIA model; 30 mg/kg b.i.d. p.o., day 36): 3.8
- CIA clinical score (mouse CIA model; 30 mg/kg b.i.d. p.o., day 39): 4.5
- CIA clinical score (mouse CIA model; 30 mg/kg b.i.d. p.o., day 40): 4.7
- CIA clinical score (mouse CIA model; 30 mg/kg b.i.d. p.o., day 41): 4.7
- CIA clinical score (mouse CIA model; 30 mg/kg b.i.d. p.o., day 42): 5.2
- CIA clinical score (mouse CIA model; 30 mg/kg b.i.d. p.o., day 43): 4.6
- CIA clinical score (mouse CIA model; 30 mg/kg b.i.d. p.o., day 46): 6.1
- CIA clinical score (mouse CIA model; 30 mg/kg b.i.d. p.o., day 47): 5.4
- CIA clinical score (mouse CIA model; 60 mg/kg b.i.d. p.o., day 32): 2.7
- CIA clinical score (mouse CIA model; 60 mg/kg b.i.d. p.o., day 33): 2.7
- CIA clinical score (mouse CIA model; 60 mg/kg b.i.d. p.o., day 35): 3.1
- CIA clinical score (mouse CIA model; 60 mg/kg b.i.d. p.o., day 36): 2.8
- CIA clinical score (mouse CIA model; 60 mg/kg b.i.d. p.o., day 39): 3.3
- CIA clinical score (mouse CIA model; 60 mg/kg b.i.d. p.o., day 40): 3.0
- CIA clinical score (mouse CIA model; 60 mg/kg b.i.d. p.o., day 41): 2.7
- CIA clinical score (mouse CIA model; 60 mg/kg b.i.d. p.o., day 42): 2.8
- CIA clinical score (mouse CIA model; 60 mg/kg b.i.d. p.o., day 43): 2.3
- CIA clinical score (mouse CIA model; 60 mg/kg b.i.d. p.o., day 46): 2.8
- CIA clinical score (mouse CIA model; 60 mg/kg b.i.d. p.o., day 47): 2.5
- ColI (collagen I) extent vs. vehicle group [1]: statistically significant reduction of ColI (collagen I) extent
